What was measured:
[1] = Stability of compound in 3% DMSO/PBS measured after 24 hrs relative to control; assay type: physicochemical; settings: read-out: Stability
[2] = Stability in human plasma measured after 4 hrs; assay type: ADME, cell-free; settings: read-out: Stability

remaining at 24 h [1] [%]	remaining at 4 h [2] [%]	SMILES
47.6	–	O=C(O)c1ccc(-c2[s+]c(-c3ccc(N(c4ccccc4)c4ccccc4)cc3)sc2[O-])cc1
–	77	CCC[N+]1=C(/C=C/C2=C3Oc4cc(NC(=O)O[C@@H]5/C=C/CCCCC5)ccc4C=C3CCC2)C(C)(C)c2ccccc21
